# Assay results published in patent publication US7205306B2, “Substituted pyrazinones, pyridines and pyrimidines as corticotropin releasing factor ligands” (Bristol-Myers Squibb Pharma Company, priority 2001, dated 2007).
# Values joined by “and” are separate entries in the source; they are usually repeats but may differ in a detail not shown here. Equal values may be shown once.
row,melting point,Compound
1,116 to 117 °C,"CCC(CC)Nc1cc(N2CCc3cc(Cl)cc(Cl)c32)nc(C)n1 [Example 1, 4-(5,7-dichloro-2,3-dihydro-1H-indol-1-yl)-6-(1-ethylpropylamino)-2-methylpyrimidine]"
2,132 to 134 °C,"CCC(CC)Nc1nc(C)nc(N2CCc3cc(Cl)cc(Cl)c32)c1Cl [Example 2, 5-chloro-4-(5,7-dichloro-2,3-dihydro-1H-indol-1-yl)-6-(1-ethylpropylamino)-2-methylpyrimidine]"
3,136 to 138 °C,"CCC(CC)Nc1nc(C)nc(N2CCc3cc(Cl)cc(Cl)c32)c1Br [Example 3, 5-bromo-4-(5,7-dichloro-2,3-dihydro-1H-indol-1-yl)-6-(1-ethylpropylamino)-2-methylpyrimidine]"
4,182 to 184 °C,"CCC(CC)Nc1nc(C)nc(N2CCc3cc(Cl)cc(Cl)c32)c1C=O [Example 6, 4-(5,7-dichloro-2,3-dihydro-1H-indol-1-yl)-6-(1-ethylpropylamino)-5-formyl-2-methylpyrimidine]"
5,150 to 152 °C,"CCC(CC)Nc1nc(C)nc(N2CCc3cc(Cl)cc(Cl)c32)c1CO [Example 7, 4-(5,7-dichloro-2,3-dihydro-1H-indol-1-yl)-6-(1-ethylpropylamino)-5-hydroxymethyl-2-methylpyrimidine]"
6,189 to 190 °C and 192 to 194 °C,"CCC(CC)Nc1nc(C)nc(N2CCc3cc(OC)cc(Cl)c32)c1C#N [Example 59, 4-(7-chloro-5-methoxy-2,3-dihydro-1H-indol-1-yl)-5-cyano-6-(1-ethylpropylamino)-2-methylpyrimidine]"
7,178 to 179 °C,"CCC(CC)Nc1nc(C)nc(N2CCc3cc(OC)cc(Cl)c32)c1C=O [Example 60, 4-(7-chloro-5-methoxy-2,3-dihydro-1H-indol-1-yl)-6-(1-ethylpropylamino)-5-formyl-2-methylpyrimidine]"
8,150 to 152 °C,"CCC(COC)Nc1nc(C)nc(N2CCc3cc(OC)cc(Cl)c32)c1I (centres unmarked) [Example 74, 4-(7-chloro-5-methoxy-2,3-dihydro-1H-indol-1-yl)-5-iodo-6-[1-(1-methoxymethyl)propylamino]-2-methylpyrimidine]"
9,182 to 183 °C,"CCC(COC)Nc1nc(C)nc(N2CCc3cc(OC)cc(Cl)c32)c1C#N (centres unmarked) [Example 75, 4-(7-chloro-5-methoxy-2,3-dihydro-1H-indol-1-yl)-5-cyano-6-[1-(1-methoxymethyl)propylamino]-2-methylpyrimidine]"
10,150 to 153 °C,"CCC(COC)Nc1nc(C)nc(N2CCc3cc(OC)cc(Cl)c32)c1C=O (centres unmarked) [Example 76, 4-(7-chloro-5-methoxy-2,3-dihydro-1H-indol-1-yl)-5-formyl-6-[1-(1-methoxymethyl)propylamino]-2-methylpyrimidine]"
11,102 to 105 °C,"CCC(C)Nc1cc(N2CCc3cc(OC)cc(Cl)c32)nc(C)n1 (centres unmarked) [Example 310, 4-(7-chloro-5-methoxy-2,3-dihydro-1H-indol-1-yl)-6-(1-methylpropylamino)-2-methylpyrimidine]"
12,168 to 170 °C,"CCC(CC)n1cc(Cl)nc(N2CCc3cc(Cl)cc(Cl)c32)c1=O [Example 401, 5-Chloro-3-(5,7-dichloro-2,3-dihydro-1H-indol-1-yl)-1-(1-ethylpropyl)-2(1H)-pyrazinone]"
13,95 to 97 °C,"CCC(CCOC)n1cc(Cl)nc(N2CCc3cc(Cl)cc(Cl)c32)c1=O (centres unmarked) [Example 410, 5-Chloro-3-(5,7-dichloro-2,3-dihydro-1H-indol-1-yl)-1-(1-ethyl-3-methoxypropyl)-2(1H)-pyrazinone]"
14,131 to 133 °C,"CCC(COC)n1cc(Cl)nc(N2CCc3cc(OC)cc(Cl)c32)c1=O (centres unmarked) [Example 413, 5-Chloro-3-(7-chloro-5-methoxy-2,3-dihydro-1H-indol-1-yl)-1-[1-(methoxymethyl)propyl]-2(1H)-pyrazinone]"
15,137 to 139 °C,"CCC(CC)n1cc(C)nc(N2CCc3cc(Cl)cc(Cl)c32)c1=O [Example 451, 3-(5,7-Dichloro-2,3-dihydro-1H-indol-1-yl)-1-(1-ethylpropyl)-5-methyl-2(1H)-pyrazinone]"
16,158 to 160 °C,"CCC(CC)n1cc(Br)nc(N2CCc3cc(Cl)cc(Cl)c32)c1=O [Example 507, 5-Bromo-3-(5,7-dichloro-2,3-dihydro-1H-indol-1-yl)-1-(1-ethylpropyl)-2(1H)-pyrazinone]"
17,166 to 168 °C,"CC[C@H](C1CC1)n1cc(Cl)nc(N2CCc3cc(Cl)cc(Cl)c32)c1=O [Example 511, 5-Chloro-1-[(1R)-1-cyclopropylpropyl]-3-(5,7-dichloro-2,3-dihydro-1H-indol-1-yl)-2(1H)-pyrazinone]"
18,164 to 165 °C,"CC[C@H](C1CC1)n1cc(Cl)nc(N2CCc3cc(Br)cc(Br)c32)c1=O [Example 512, 5-Chloro-1-[(1R)-1-cyclopropylpropyl]-3-(5,7-dibromo-2,3-dihydro-1H-indol-1-yl)-2(1H)-pyrazinone]"
19,128 to 130 °C,"CC[C@H](C1CC1)n1cc(Cl)nc(N2CCc3cc(OC)c(F)c(Cl)c32)c1=O [Example 513, 5-Chloro-3-(7-chloro-6-fluoro-5-methoxy-2,3-dihydro-1H-indol-1-yl)-1-[(1R)-1-cyclopropylpropyl]-2(1H)-pyrazinone]"
20,157 to 159 °C,"CC[C@@H](C1CC1)n1cc(Cl)nc(N2CCc3cc(Cl)cc(Cl)c32)c1=O [Example 517, 5-Chloro-1-[(1S)-1-cyclopropylpropyl]-3-(5,7-dichloro-2,3-dihydro-1H-indol-1-yl)-2(1H)-pyrazinone]"
21,165 °C,"CC[C@@H](C1CC1)n1cc(Cl)nc(N2CCc3cc(Br)cc(Br)c32)c1=O [Example 518, 5-Chloro-1-[(1S)-1-cyclopropylpropyl]-3-(5,7-dibromo-2,3-dihydro-1H-indol-1-yl)-2(1H)-pyrazinone]"
22,127 to 129 °C,"CC[C@@H](C1CC1)n1cc(Cl)nc(N2CCc3cc(OC)c(F)c(Cl)c32)c1=O [Example 519, 5-Chloro-3-(7-chloro-6-fluoro-5-methoxy-2,3-dihydro-1H-indol-1-yl)-1-[(1S)-1-cyclopropylpropyl]-2(1H)-pyrazinone]"
23,93 to 95 °C,"COC[C@@H](C)n1cc(Cl)nc(N2CCc3cc(Cl)cc(Cl)c32)c1=O [Example 520, 5-Chloro-3-(5,7-dichloro-2,3-dihydro-1H-indol-1-yl)-1-[(1R)-2-methoxy-1-methylethyl]-2(1H)-pyrazinone]"
24,119 to 120 °C,"COC[C@@H](C)n1cc(Cl)nc(N2CCc3cc(Br)cc(Br)c32)c1=O [Example 521, 5-Chloro-3-(5,7-dibromo-2,3-dihydro-1H-indol-1-yl)-1-[(1R)-2-methoxy-1-methylethyl]-2(1H)-pyrazinone]"
25,140 to 142 °C,"CCC(COC)n1cc(Cl)nc(N2CCc3cc(OC)c(F)c(Cl)c32)c1=O (centres unmarked) [Example 522, 5-Chloro-3-(7-chloro-6-fluoro-5-methoxy-2,3-dihydro-1H-indol-1-yl)-1-[1-(methoxymethyl)propyl]-2(1H)-pyrazinone]"
26,143 to 146 °C,"CC[C@H](COC)n1cc(Cl)nc(N2CCc3cc(Cl)cc(Cl)c32)c1=O [Example 524, 5-Chloro-3-(5,7-dichloro-2,3-dihydro-1H-indol-1-yl)-1-[(1R)-1-(methoxymethyl)propyl]-2(1H)-pyrazinone]"
